According to the NIST ThermoML archive (doi:10.1021/acs.jced.9b00442):

Columns and labels:
[1] = 100 kPa, Liquid; for electrical conductivity: Frequency=0.0006 MHz, Alternating current cell with electrodes; for viscosity: Concentric cylinders viscometry; for mass density: Vibrating tube method
[2] = refractive index (Na D-line) (dimensionless); conditions: 100 kPa, Liquid, Standard Abbe refractometry

CCCC[N+](C)(C)CC.O=S(=O)([N-]S(=O)(=O)C(F)(F)F)C(F)(F)F
Conditions | electrical conductivity [S/m] | mass density [kg/m3] | refractive index | viscosity [mPa·s]
[1], 283.15 K | 0.082 | – | – | –
[1], 288.15 K | 0.11 | 1380.6 | – | 176.1
[1], 289.15 K | – | 1379.7 | – | –
[1], 290.15 K | – | 1378.8 | – | –
[1], 291.15 K | – | 1377.9 | – | –
[1], 292.15 K | – | 1377 | – | –
[1], 293.15 K | 0.143 | 1376.1 | – | 132.4
[1], 294.15 K | – | 1375.2 | – | –
[1], 295.15 K | – | 1374.3 | – | –
[1], 296.15 K | – | 1373.4 | – | –
[1], 297.15 K | – | 1372.5 | – | –
[1], 298.15 K | 0.182 | 1371.6 | – | 100.5
[1], 299.16 K | – | 1370.8 | – | –
[1], 300.16 K | – | 1369.9 | – | –
[1], 301.15 K | – | 1369 | – | –
[1], 302.15 K | – | 1368.1 | – | –
[1], 303.15 K | 0.228 | 1367.2 | – | 78.4
[1], 304.15 K | – | 1366.3 | – | –
[1], 305.15 K | – | 1365.4 | – | –
[1], 306.15 K | – | 1364.6 | – | –
[1], 307.15 K | – | 1363.7 | – | –
[1], 308.15 K | 0.279 | 1362.8 | – | 62.3
[1], 309.15 K | – | 1361.9 | – | –
[1], 310.15 K | – | 1361.1 | – | –
[1], 311.15 K | – | 1360.2 | – | –
[1], 312.15 K | – | 1359.3 | – | –
[1], 313.15 K | 0.337 | 1358.4 | – | 50.9
[1], 314.15 K | – | 1357.6 | – | –
[1], 315.15 K | – | 1356.7 | – | –
[1], 316.15 K | – | 1355.8 | – | –
[1], 317.15 K | – | 1355 | – | –
[1], 318.15 K | 0.401 | 1354.1 | – | 41.2
[1], 319.15 K | – | 1353.2 | – | –
[1], 320.15 K | – | 1352.3 | – | –
[1], 321.15 K | – | 1351.5 | – | –
[1], 322.15 K | – | 1350.6 | – | –
[1], 323.15 K | 0.473 | 1349.7 | – | 34.2
[1], 324.15 K | – | 1348.9 | – | –
[1], 325.15 K | – | 1348 | – | –
[1], 326.15 K | – | 1347.2 | – | –
[1], 327.15 K | – | 1346.3 | – | –
[1], 328.15 K | – | 1345.5 | – | 28.8
[1], 329.15 K | – | 1344.6 | – | –
[1], 330.15 K | – | 1343.7 | – | –
[1], 331.15 K | – | 1342.9 | – | –
[1], 332.15 K | – | 1342 | – | –
[1], 333.15 K | – | 1341.2 | – | 24.8
[1], 334.15 K | – | 1340.3 | – | –
[1], 335.16 K | – | 1339.5 | – | –
[1], 336.15 K | – | 1338.6 | – | –
[1], 337.15 K | – | 1337.8 | – | –
[1], 338.15 K | – | 1336.9 | – | 21
[1], 339.15 K | – | 1336 | – | –
[1], 340.15 K | – | 1335.2 | – | –
[1], 341.15 K | – | 1334.3 | – | –
[1], 342.15 K | – | 1333.5 | – | –
[1], 343.15 K | – | 1332.6 | – | 18.2
[1], 344.15 K | – | 1331.8 | – | –
[1], 345.15 K | – | 1330.9 | – | –
[1], 346.15 K | – | 1330.1 | – | –
[1], 347.15 K | – | 1329.2 | – | –
[1], 348.15 K | – | 1328.4 | – | 15.9
[1], 349.15 K | – | 1327.5 | – | –
[1], 350.15 K | – | 1326.7 | – | –
[1], 351.15 K | – | 1325.9 | – | –
[1], 352.15 K | – | 1325 | – | –
[1], 353.15 K | – | 1324.2 | – | 14.2
[1], 354.15 K | – | 1323.3 | – | –
[1], 355.15 K | – | 1322.5 | – | –
[1], 356.15 K | – | 1321.6 | – | –
[1], 357.15 K | – | 1320.8 | – | –
[1], 358.15 K | – | 1319.9 | – | 12.4
[1], 359.15 K | – | 1319.1 | – | –
[1], 360.15 K | – | 1318.3 | – | –
[1], 361.15 K | – | 1317.4 | – | –
[1], 362.16 K | – | 1316.6 | – | –
[1], 363.15 K | – | 1315.7 | – | 11
[2], 283.15 K | – | – | 1.4174 | –
[2], 288.15 K | – | – | 1.416 | –
[2], 293.15 K | – | – | 1.4147 | –
[2], 298.15 K | – | – | 1.4133 | –
[2], 303.15 K | – | – | 1.412 | –
[2], 308.15 K | – | – | 1.4106 | –
[2], 313.15 K | – | – | 1.4092 | –
[2], 318.15 K | – | – | 1.4078 | –
[2], 323.15 K | – | – | 1.4064 | –
[2], 328.15 K | – | – | 1.4051 | –
[2], 333.15 K | – | – | 1.4038 | –
[2], 338.15 K | – | – | 1.4024 | –
[2], 343.15 K | – | – | 1.4012 | –
[2], 348.15 K | – | – | 1.3998 | –
[2], 353.15 K | – | – | 1.3985 | –
[2], 358.15 K | – | – | 1.3973 | –
